From PMC3229523, “Identification of Lactoferricin B Intracellular Targets Using an Escherichia coli Proteome Chip” (PLoS ONE, 2011)
“Also recorded” adds a separate entry of the source. Ends that are not written are not given here. * marks the point of attachment. Biotin = O=C1N[C@H]2[C@H](CS[C@H]2CCCCC(=O)*)N1

Tests used:
[1] = test system: E. coli K-12 proteins (E. coli proteome chip); experiment: E. coli proteome chip assay; type: binding; conditions: 10 nM N-terminal biotinylated LfcinB, 1% BSA, room temperature, 1 h; ratio DyLight 649 to DyLight 549, ProCAT local cut-off; triplicate
Method: To fabricate the proteome chips, E. coli K-12 proteins were expressed and purified in a high-throughput fashion. The procedure was modified from Chen et al.. Briefly, E. coli protein expression clones fused with a 6×-His tag, provided by Dr. Mori, were first incubated with glass beads (Biospec Products Inc.) in 2× LB medium containing 30 µg/ml chloramphenicol in 96 DeepWell™ plates (Nunc) at 37°C overnight. The overnight cultures were then diluted with 2× LB that contains 30 µg/ml chloramphenicol to the OD595 value of 0.1. When the cells grew to an OD595 value of 0.7–0.9, 500 µM of isopropyl β-D-thiogalactoside (IPTG) was added to induce protein expression at 37°C for ∼3.5 h. The cultures were then harvested by centrifugation at 3220 g for 5 min at 4°C, and the pellets were stored at −80°C before purification. […]
For image processing of chip assay results, Genepix Pro 6.0 was used to align the protein spot of each individual protein and then all aligned protein image signals were exported as a text file. The text file was analyzed by ProCAT [17], a signal normalization method. The relative ability of LfcinB to bind to each protein was estimated by the ratio of the fluorescence intensity of LfcinB to the fluorescence intensity of an anti-His antibody after the normalization. […]

E. coli K-12 MG1655 = experiment: E. coli growth inhibition (growth curves, OD595); type: cell-based; conditions: 22.4 µM, approx. 10^7 CFU/ml, LB medium, 37°C with shaking, OD595 every 20 min for 7 h 20 min, PBS negative control, Figure 2
Method: The E. coli K-12 MG1655 strain was first inoculated into LB medium and incubated at 37°C with shaking for 16 h. After incubation, the culture was diluted to approximately 10^7 CFU/ml using LB medium. Then, 22.4 µM of N-terminal biotinylated LfcinB (Kelowna Inc.), LfcinB (Kelowna Inc.) or biotin (Thermo) were individually added to the diluted cultures in a 96-well plate. PBS was used as a negative control. Finally, each compound or PBS with E. coli was incubated at 37°C with shaking and the growth curves were observed by measuring the OD595 value every 20 min for 7 h 20 min in a microplate reader (Synergy 2, BioTek®).

Molecule | number of proteins selected as LfcinB-binding (top 5% of the E. coli proteome, membrane proteins ruled out) [1] | growth curves / inhibition of E. coli growth (E. coli K-12 MG1655)
biotinylated LfcinB: N-terminal biotinylated LfcinB (Kelowna Inc.), used as probe in chip assays (Biotin-FKCRRWQWRMKKLGAPSITCVRRAF; ends and bridges not checked) | 153 proteins | exhibited the same inhibition of E. coli growth; also recorded: exhibit the same antibacterial activity
O=C(O)CCCC[C@@H]1SC[C@@H]2NC(=O)N[C@@H]21 [biotin, reference compound] | – | had no influence on E. coli growth
